The record followed here is patent publication US6949533B2, “6,7-Oxygenated steroids and uses related thereto” (Inflazyme Pharmaceuticals Ltd., priority 1996, dated 2005).

Like-named read-outs stand apart in the source and are kept apart here.

The test system of experiment [1] is mouse mast cells (MC/9). The experiment is described as follows: antigen-induced release of hexosaminidase from MC/9 cells. The settings on record: Mus musculus, MC9, 25 μM compound, read-out: Percentage Inhibition (mean) MC/9 cells. In kind it is cell-based. As for the experimental part: (§1) The anti-allergic effects of various polyhydroxylated steroids of the present invention were evaluated by measuring their effect on antigen-induced secretion of hexosaminidase from a passively sensitized rat mast cell line (RBL-2H3) and a murine mast cell line (MC/9). The ability of agents to inhibit the release of mast cell granule contents, e.g., histamine and hexosaminidase, is indicative of anti-allergy and/or anti-asthma activity.
(§2) Hexosaminidase is released from the mast cell granule along with histamine and other mediators during antigen challenge. RBL-2H3 and MC/9 cells were grown in culture and passively sensitized to dinitrophenol (DNP) using anti-human-DNP (IgE). Cells were incubated with each compound (25 μM) for 1 hour at 37° C. and then stimulated with 0.1 mg/ml DNP-HSA (antigen) for 15 min. Aliquots of the supernatant were removed and used to measure the amount of hexosaminidase released during challenge with the antigen. The amount of hexosaminidase present in the supernatant was determined calorimetrically by monitoring the enzymatic metabolism of p-nitrophenyl-N-acetyl-β-D-glucosaminide (p-NAG) over a period of 1 hour at 410 nm. The effect of each compound was determined as a percentage of the antigen-induced response (minus background release) obtained in the presence of DMSO alone, as set forth in Tables 2 and 3. These values were used to determine the degrees of inhibition of antigen-induced hexosaminidase release from the cells.

For experiment [2], the system named is guinea pig ileum. The experiment is described as follows: antigen-induced contraction of ileum from sensitized guinea pigs. The settings on record: Cavia porcellus, read-out: Percentage Inhibition, 30 μM compound, n = 3-4. As for the experimental part:
The ability of compounds to inhibit allergen-induced contraction of ileum from sensitized animals is indicative of antiallergic activity. Sensitized guinea pig ileum is particularly useful in measuring the immediate allergic response.
The guinea pig ileum has been used to evaluate the ability of compounds to inhibit allergan-induced histamine and mediator release causing smooth muscle contraction. Guinea pigs were sensitized by an intraperitoneal injection of 100 mg ovalbumin and an intramuscular injection of 50 mg ovalbumin on day 0, followed by a second intramuscular injection of 50 mg ovalbumin on day 1. […] Segments of ileum were prepared and suspended, with muscle contractions being measured in the longitudinal plane, in Tyrode's buffer at 37° C. and aerated with 5% CO2 in O2. Tissues were suspended under a resting tension of 2 grams and isometric contractions were measured using force-displacement transducers coupled to a polygraph. Tissues were stimulated with 3 μM histamine 3 times to ensure reproducible contractions were obtained. Tissues were then incubated with each compound (30 μM) or 0.15% dimethylsulphoxide (DMSO) as a control, for 20 min, after which time the tissues were challenged with 100 μg/ml ovalbumin. The magnitude of the contraction induced by OA in the presence of each compound was expressed as a percentage of the contraction obtained to 3 μM histamine. The protective effects of the various compounds on OA-induced contraction of guinea pig ileum from sensitized animals are summarized in Table 4.

For experiment [3], the system named is passively sensitized rat mast cells (RBL-2H3). The experiment is described as follows: antigen-induced release of hexosaminidase from RBL-2H3 cells. In kind it is cell-based. To be noted: Rattus norvegicus. The method, then: as §1, §2
Experiment [4] deals with sensitized guinea pigs. As to the kind of experiment: allergen-induced changes in lung resistance and compliance in vivo. Set-up: species or system guinea pig. The settings on record: 5 mg/kg/day for 4 days p.o. The method, then:
Female Cam Hartley guinea pigs (350-400 g) are sensitized to ovalbumin by exposure of the guinea pigs to a nebulized solution of 1% ovalbumin in saline for 15 minutes. After 10-12 days, the animals are found to be acutely sensitized to the allergen (ovalbumin). Animals are treated by oral gavage, under light halothane anesthesia, with 300 μl polyethyleneglycol-200 (PEG) or 5 mg/Kg of test compound in 300 μl of PEG. Animals are treated once daily for 4 days with the final dose administered 2 hours prior to allergen challenge. Alternatively, compounds were delivered by inhalation, using a Hudson nebulizer driven by 6 psi oxygen, providing a single dose of 50 μg/Kg 20 min prior to challenge.
An animal is anaesthetized using ketamine ([…]; i.p.) and xylazine (10 mg/Kg; i.p.) and 1% halothane during the surgical procedure. A tracheostomy is performed and a water-filled esophageal cannula is inserted prior to positioning the animal in a body plethysmograph. The tracheal cannula is attached to a fixed tracheal cannula in the plethysmograph. Cardiac function is monitored using electrocardiography. The animal is paralyzed using pancuronium bromide (0.8 mg/Kg; i.m.) and ventilated with 3 ml tidal breaths using a Harvard small animal ventilator, at a frequency of 60 breaths per minute. Pulmonary resistance and dynamic lung compliance data are obtained from volume, flow and transpulmonary pressure signals using multipoint analysis.
Pulmonary function is continually monitored throughout the experiment and measurements of lung resistance and lung compliance are made at various time-points (e.g., 0, 1, 2, 3, 4, 5, 10, 20 and 30 min) following antigen challenge. Data is collected on a computer-linked physiological measurement system using DIREC Physiological recording software and analyzed using ANADAT software designed for lung mechanics measurements. This software was obtained from RHT-InfoDat Inc., Montreal, Quebec, Canada.
Once baseline resistance and compliance measurements are obtained, the animal is challenged with 6 breaths of saline. After 10 minutes, during which time no alterations in lung function should occur, the animal is challenged with 6 breaths of 2 or 3% ovalbumin in saline (as the antigen stimulus). Saline and antigen are delivered in each breath using a Hudson nebulizer.

Experiment [5] has as its system rabbit platelets. As to the kind of experiment: PAF-induced aggregation of rabbit platelets. The class given is cell-based. The settings on record: Oryctolagus cuniculus, Platelet, read-out: % Inhibition at 80 μM. From the text:
Within the present invention, it was discovered that the polyhydroxylated steroids as well as intermediates described in previous sections inhibited the aggregation of platelets caused by platelet activating factor (PAF). PAF is a local mediator of thrombosis and prevention of the formation of blood clots has direct implication in the treatment of thrombosis and associated cardiovascular diseases. The assay system used to evaluate the ability of compounds to inhibit the aggregation of platelets in response to exogenous stimuli is indicative of anti-thrombotic or thrombolytic activity.
Platelets were isolated from rabbit blood and prepared at a density of 2.4×10^8 cells/ml in Tyrodes buffer (pH 7.2) containing Ca^2+. Platelets were incubated with each compound for 5 min at 37° C. prior to stimulation. Platelets were stimulated with 1 nM platelet activating factor (PAF; EC75) in the presence of each of the compounds and aggregation was monitored for 5 min. Compounds were solubilized in dimethylsulfoxide (DMSO) and aggregation was measured as a percentage of the response to 1 nM PAF obtained in the presence of the appropriate concentration of DMSO. The degree of inhibition caused by each sample was calculated using the control response in the presence of DMSO equal to 100%.

Experiment [6] deals with NF-κB. The experiment is described as follows: NF-κB gel shift binding assay in TPA-stimulated RBL-2H3 cells. The class given is cell-based. The settings on record: Rattus norvegicus, compound 1 μM, 2 hours preincubation, read-out: Percent Inhibition of Response to TPA (0.1 μM).
Experiment [7] relates to isolated trachea. Set-up: species or system guinea pig. The settings on record: compound 20 μM. The method, then:
The effects of a number of the compounds described herein on allergen-induced bronchoconstriction were evaluated for anti-asthma activity. The ability of a compound to inhibit allergen-induced decreases in lung function in sensitized guinea pigs in response to antigen-challenge is indicative of anti-asthma activity. In particular, the model system is useful in the evaluation of the potential effects of a compound in the treatment of the early asthmatic reaction (EAR) when severe bronchoconstriction occurs.
Guinea pigs were exposed to a nebulized solution of 1% ovalbumin (OA) in saline for 15 min. […] Tracheal rings were prepared and bathed in Krebs-Henseleit solution at 37° C. and aerated with 5% CO2 in […]. Tissues were suspended under a resting tension of 2 g and isometric contractions were measured using force-displacement transducers coupled to a polygraph. Tissues were incubated with each compound or 0.1% dimethylsulfoxide (as a control) for 20 min, after which increasing concentrations of OA (0.001-100 μg/ml) were added to the tissue. After the final concentration of OA was added and the response was recorded, the tissues were stimulated with 100 μM methacholine which caused maximum contraction of the trachea. The magnitude of the contraction induced by OA in the presence of each compound was expressed as a percentage of the maximum contraction obtained using methacholine (100 μM).

[8] abbreviates: RBL-2H3, 25 μM compound, antigen-induced hexosaminidase release, read-out: Percentage Inhibition (mean) RBL-2H3 Cells.
Where [9] appears, read: RBL-2H3, read-out: Percentage Inhibition (mean) RBL-2H3 Cells.

For the molecule `C=C1CCC2C3C(CC[C@]12C)[C@@]1(C)CC[C@H](O)CC1[C@@H](O)[C@@H]3O` (stereo partly shown) [Compound 342], the inhibition at 25 µM in experiment [1] was determined as 39%; in experiment [3] (setting [8]) it was 57%. For the same molecule, in experiment [2], the inhibition at 30 µM came out at 28.3%. The “Lung Compliance” value turned out to be 0.154 ± 0.055 ml/cm H2O in experiment [4] (1 min after challenge); 0.073 ± 0.038 ml/cm H2O in experiment [4] (2 min after challenge); 0.044 ± 0.022 ml/cm H2O in experiment [4] (3 min after challenge); 0.044 ± 0.022 ml/cm H2O in experiment [4] (4 min after challenge); 0.038 ± 0.015 ml/cm H2O in experiment [4] (5 min after challenge); 0.048 ± 0.005 ml/cm H2O in experiment [4] (10 min after challenge). Besides, the “Lung Compliance” value in experiment [4] (20 min after challenge) is 0.084 ± 0.005 ml/cm H2O; in experiment [4] (30 min after challenge), 0.109 ± 0.006 ml/cm H2O; in experiment [4] (Baseline), 0.444 ± 0.037 ml/cm H2O; in experiment [4] (OA/10 s), 0.464 ± 0.031 ml/cm H2O. The “Lung Resistance” value is on record as 0.453 ± 0.120 cm H2O/ml/sec in experiment [4] (1 min after challenge); 1.786 ± 0.82 cm H2O/ml/sec in experiment [4] (2 min after challenge); 1.930 ± 0.55 cm H2O/ml/sec in experiment [4] (3 min after challenge); 1.621 ± 0.36 cm H2O/ml/sec in experiment [4] (4 min after challenge); 1.4816 ± 0.32 cm H2O/ml/sec in experiment [4] (5 min after challenge); 1.002 ± 0.14 cm H2O/ml/sec in experiment [4] (10 min after challenge). Further, the “Lung Resistance” value in experiment [4] (20 min after challenge) amounted to 0.524 ± 0.08 cm H2O/ml/sec; in experiment [4] (30 min after challenge), 0.354 ± 0.04 cm H2O/ml/sec; in experiment [4] (Baseline) it was 0.212 ± 0.020 cm H2O/ml/sec; in experiment [4] (OA/10 s), 0.223 ± 0.020 cm H2O/ml/sec.
Regarding `C[C@]12CCC(=O)C=C1[C@@H](O)[C@H](O)C1C2CC[C@]2(C)C(=O)CCC12` (stereo partly shown) [Compound 7], in experiment [2], the inhibition at 30 µM was determined as 54%. Also, the inhibition at 25 µM in experiment [3] (setting [9]) worked out at 21.7%. The inhibition at 80 µM in experiment [5] worked out at 12.3%.
As for `C/C=C1/CCC2C3C(CC[C@]12C)[C@@]1(C)CC[C@H](O)CC1[C@@H](O)[C@@H]3O` (stereo partly shown) [Compound 333], the inhibition at 25 µM in experiment [1] was found to be 71%; in experiment [3] (setting [8]), 69%. Moreover, the inhibition at 30 µM in experiment [2] worked out at 63%. In addition, in experiment [6], the inhibition at 1 µM amounted to 34%.
On to `CC1(C)O[C@@H]2C3=CC(=O)CC[C@]3(C)C3CC[C@]4(C)C(=O)CCC4C3[C@H]2O1` (stereo partly shown) [Compound 8], for which, in experiment [5] (80 μM compound, 5 min preincubation, PAF-stimulated rabbit platelets (title: 0.1 nM PAF)), the inhibition at 80 µM turned out to be 11.6%.
For the molecule `C[C@]12CC[C@@H](O)C[C@@H]1[C@@H](O)[C@H](O)[C@@H]1[C@@H]2CC[C@]2(C)C(=O)CC[C@@H]12` [Compound 326], the “percentage contraction compared to 100 μM methacholine” value (shortened to “percentage contraction”) in experiment [7] (OA 0.01 μg/ml, study 2) was found to be 0%.
For the molecule `CC1(C)O[C@@H]2C3C(CC[C@@]4(C)C3CC[C@@H]4O[Si](C)(C)C(C)(C)C)[C@@]3(C)CC[C@H](O)[C@@H](O)C3[C@H]2O1` (stereo partly shown) [Compound 236], the “percentage contraction” value in experiment [7] (OA 0.01 μg/ml, study 1) worked out at 5.6%; in experiment [7] (OA 0.03 μg/ml, study 1), 5.6%; in experiment [7] (OA 10.0 μg/ml, study 1) it was 39%. Besides, the inhibition at 25 µM in experiment [3] (setting [9]) stood at 31%. The inhibition at 80 µM in experiment [5] turned out to be 100%.
`C[C@]12CC[C@@H](O)C[C@@H]1[C@@H](O)[C@H](O)[C@@H]1[C@@H]2CC[C@]2(C)[C@@H](O)CC[C@@H]12` [Compound 327]: the “percentage contraction” value in experiment [7] (OA 0.01 μg/ml, study 2) is on record as 0%; in experiment [7] (OA 0.1 μg/ml, study 2) it was 0%. Moreover, the inhibition at 25 µM in experiment [3] (setting [9]) was found to be 35.2%.
